According to patent EP0334164A2, “Antihypertensive combination preparation” (F. HOFFMANN-LA ROCHE AG, priority 1988, dated 1989):

Tests used:
[1] = system: gesunde männliche Probanden; assay: Double-blind 4-way crossover study, 7-day treatment periods, blood pressure and pulse in healthy volunteers; format: in vivo, human; conditions: for Diastolische Blutdruckwerte am 7. Versuchstag, Mittelwert / Systolische Blutdruckwerte am 7. Versuchstag, Mittelwert: mean of 6 Probanden, day 7, lying, 2,5 mg Cilazapril and/or 120 mg Propranolol daily; for Abfall des systolischen und diastolischen Blutdrucks: Monotherapie (2,5 mg Cilazapril or 120 mg Propranolol), day 7, healthy volunteers
Protocol: […] Proband […], wurde vor Beginn der Studie von jedem Probanden die […], und man […] Kontrollen verbunden war: […] Die Probanden hatten jeweils an den Versuchstagen 0 bis 6 […] zu […] Abend […] noch geraucht. Nach 5-minütiger Ruhepause im Sitzen wurden systolischer und diastolischer Blutdruck und Puls […] die Probanden […], und man […] unter Ueberwachung die Medikation mit 100 ml Leitungswasser und […] Hause. Am […] Probanden […]; die Untersuchungen […] bei 15° erhobenem Oberkörper durchgeführt. Nach jeweils 15-minütiger […] und Puls zu den Zeitpunkten -2, 1, 2, 6, 8 und 24 Stunden gemessen.

[2] = system: Patienten mit einer essentiellen Hypertonie; assay: Crossover study, 3-week treatment periods, sitting blood pressure in hypertensive patients; format: in vivo, human; conditions: 3 weeks treatment, 2,5 mg Cilazapril and/or 120 mg Propranolol; for mittlere Senkung des diastolischen Blutdrucks: 2 Stunden after dosing, sitting, 13 patients; for Ansprechen (Senkung des diastolischen Blutdrucks auf unter 90 mmHg): number of responders
Protocol: B) Zehn männliche und drei weibliche Patienten mit einer essentiellen Hypertonie im Alter von 43-62 Jahren und mit einem Gewicht von 64-106 kg nahmen an dieser Crossover-Studie teil, die folgende drei Behandlungsabschnitte von jeweils 3 Wochen umfasste, wobei die Abschnitte (1) und (2) je nach Gruppe vertauscht waren: • (1) 2,5 mg Cilazapril • (2) 120 mg Propranolol • (3) 2,5 mg Cilazapril plus 120 mg Propranolol.
Mit Ausnahme von drei Patienten erhielt keiner während mindestens 2 Wochen vor Beginn einer zweiwöchigen Placebo-Behandlung eine blutdrucksenkende Medikation. […] Dann wurden die Patienten wahlweise in zwei Gruppen eingeteilt, wobei die eine Gruppe zuerst mit Cilazapril und die andere zuerst mit Propranolol behandelt wurde. Nach der dreiwöchigen Behandlungsdauer wurde die Medikation in den beiden Gruppen ausgetauscht. Während der Behandlungsabschnitte wurden alle Messungen 2 Stunden nach Verabreichung durchgeführt, wobei der Blutdruck jeweils im Sitzen gemessen wurde.
Als "Ansprechen" auf eine Therapie wurde in dieser Studie eine Senkung des diastolischen Blutdrucks auf unter 90 mmHg defineriert.

[3] = system: Patienten, deren Bluthochdruck mit Captopril behandelt wird; conditions: added to Captopril treatment; Amery et al., Clinical Science 61 (1981); cited from earlier work

| Compound | Diastolische Blutdruckwerte am 7. Versuchstag, Mittelwert ([1]; 1 Std) [mmHg] | Systolische Blutdruckwerte am 7. Versuchstag, Mittelwert ([1]; 1 Std) [mmHg] | Diastolische Blutdruckwerte am 7. Versuchstag, Mittelwert ([1]; 2 Std) [mmHg] | Systolische Blutdruckwerte am 7. Versuchstag, Mittelwert ([1]; 2 Std) [mmHg] | Diastolische Blutdruckwerte am 7. Versuchstag, Mittelwert ([1]; 6 Std) [mmHg] | Systolische Blutdruckwerte am 7. Versuchstag, Mittelwert ([1]; 6 Std) [mmHg] | Diastolische Blutdruckwerte am 7. Versuchstag, Mittelwert ([1]; 8 Std) [mmHg] | Systolische Blutdruckwerte am 7. Versuchstag, Mittelwert ([1]; 8 Std) [mmHg] | Diastolische Blutdruckwerte am 7. Versuchstag, Mittelwert ([1]; 24 Std) [mmHg] | Systolische Blutdruckwerte am 7. Versuchstag, Mittelwert ([1]; 24 Std) [mmHg] | Diastolische Blutdruckwerte am 7. Versuchstag, Mittelwert ([1]; -2 Std) [mmHg] | Systolische Blutdruckwerte am 7. Versuchstag, Mittelwert ([1]; -2 Std) [mmHg] | Abfall des systolischen und diastolischen Blutdrucks [1] | Zunahme der Herzfrequenz ([1]; Monotherapie, 2,5 mg Cilazapril, day 7) | mittlere Senkung des diastolischen Blutdrucks [2] [mmHg] | Ansprechen (Senkung des diastolischen Blutdrucks auf unter 90 mmHg) [2] [von 13 Patienten] | Abnahme der Herzfrequenz ([1]; Monotherapie, 120 mg Propranolol, day 7) | Blood pressure effect of additional Propranolol [3] |
| --- | --- | --- | --- | --- | --- | --- | --- | --- | --- | --- | --- | --- | --- | --- | --- | --- | --- | --- |
| CCOC(=O)[C@H](CCc1ccccc1)N[C@H]1CCCN2CCC[C@@H](C(=O)O)N2C1=O [Cilazapril, 9(S)-[1-(S)-Aethoxycarbonyl-3-phenylpropylamino]octahydro-10-oxo-6H-pyridazo[1,2-a]-[1,2]diazepin-1(S)-carbonsäure] | 72 | 109 | 69 | 104 | 63 | 107 | 66 | 108 | 74 | 118 | 73 | 109 | ca. 7 mmHg | ca. 5 Schläge/Minute | 8 | 4 |  |  |
| CC(C)NCC(O)COc1cccc2ccccc12 (stereo not drawn) [Propranolol] | 63 | 106 | 67 | 106 | 60 | 110 | 65 | 108 | 76 | 115 | 72 | 111 | ca. 7 mmHg |  | 9 | 2 | ca. 8 Schläge/Minute | eine weitere Blutdrucksenkung |
